Results on four compounds are retold here after article PMC9862800, “Pharmaceutical Systems as a Strategy to Enhance the Stability of Oxytetracycline Hydrochloride Polymorphs in Solution” (Pharmaceutics, 2023).

One may read the half-life as the time in which the quantity being followed falls by half.

A short description of data set [1]: Apparent binding constant by UV-vis spectroscopy, Scott's plot, ligand β-CD. The conditions noted are these: aqueous solution; absorption at 355 nm; Scott's equation, 1:1 stoichiometry; OxyCl 0.068 mM, ligand 0.068 to 10 mM. The data set is classed as physicochemical. Here is the method:
(§1) UV-vis data were used to calculate the association or binding constants (Ka) of OxyCl polymorphs with each ligand in an aqueous solution by different treatment analyses. The concentration of OxyCl was kept constant (0.068 mM), while the concentration of ligands increased from 0.068 to 10 mM.
(§2) Ka values were determined by applying the formula of Benesi–Hildebrandt, adjusted by Scott utilized for a complex of 1:1 stoichiometry:(1) [L]/ΔAobs=[L]/ΔAc+1/Ka×ΔAc where [L] is the molar concentration of the ligand, ∆Aobs is the variation in the absorbance observed for the OxyCl solid form for a given [L], ΔAc is the variation in the absorbance between the complex and the free solid form.
(§3) The association constant (Ka) for the formation of binary systems was estimated from changes in the intensity of the absorption at 355 nm with increasing ligand concentration using double reciprocal plots of Scott´s equation. […] However, deviations in straight lines were detected for the binary systems with NAC, which determined it was impossible to calculate an association constant assuming this model. To determine the Ka for OxyCl:NAC systems, a model matrix that applied least-squares techniques for the linear transformation of the data was used.

Data set [2] is described as follows: Apparent binding constant by UV-vis spectroscopy, Scott's plot, ligand ASP. It is filed as physicochemical. Conditions: aqueous solution; absorption at 355 nm; Scott's equation, 1:1 stoichiometry; OxyCl 0.068 mM, ligand 0.068 to 10 mM. As for the experimental part: as §1, §2, §3
A short description of data set [3]: Apparent binding constant by UV-vis spectroscopy, Scott's plot, ligand HIS. It is filed as physicochemical. The conditions noted are these: aqueous solution; absorption at 355 nm; Scott's equation, 1:1 stoichiometry; OxyCl 0.068 mM, ligand 0.068 to 10 mM. As for the experimental part: as §1, §2, §3
A short description of data set [4]: Apparent binding constant by UV-vis spectroscopy, least-squares model matrix, ligand NAC. Conditions: aqueous solution; absorption at 355 nm; model matrix with least-squares linear transformation; OxyCl 0.068 mM, ligand 0.068 to 10 mM. It is filed as physicochemical. As for the experimental part:
as §1
Another model for measuring binding constants in data analysis utilizes least-squares analysis. The general approach is to use the linear regression method with a model matrix to find the binding association constant and then apply least-squares procedures to a linear transformation. The normal equations can be written in matrix form as:(2) M×P=Q where (3) M=[n∑x∑x∑x^2] (4) P=[a/b] (5) Q=[∑y/∑xy] then:(6) Ka=a/b
as §3

The nature of data set [5]: Chemical stability (degradation kinetics) in aqueous solution by HPLC. The data set is classed as physicochemical. Conditions: 25.0 ± 0.1 °C; for k0, intrinsic rate constant of degradation of the free polymorph: light protection, 30 µg/mL. As for the experimental part: (§4) The kinetics of degradation of OxyCl polymorphs both in the presence and absence of ligands were investigated in the aqueous solutions and PBS.
(§5) Stock solutions of each solid form, as well as each ligand β-CD, ASP, and NAC, were prepared. These stock solutions were diluted to a final concentration of 30 µg/mL in water and PBS solutions to prepare the test solutions. The solutions containing ligands were prepared in the molar ratio of 1:1. These solutions were stored with light protection in order to diminish any photolytic effects in a water bath at a constant temperature of 25.0 ± 0.1 °C. Samples were withdrawn at appropriate time intervals and immediately analyzed by HPLC. The observed pseudo first-order rate constants (kobs) for the OxyCl polymorphs degradation were obtained from a linear regression analysis of the natural logarithm of the remaining solid forms plotted against time.
(§6) An HPLC-UV procedure under isocratic conditions was optimized. The results were expressed as the mean of the three determinations of samples prepared in duplicate. The HPLC system was an Agilent 1100 (Agilent Technologies, Waldbronn, Germany) equipped with a column Gemini C18 250 mm × 4.6 mm i.d. filled with 5 μm particles and a precolumn (guard cartridge SecurityGuard C18 4 mm × 3.0 mm i.d.) supplied by Phenomenex (Phenomenex Inc., Torrance, CA, USA). To avoid interference from degradation products, the UV detection was performed at a wavelength of 355 nm. The mobile phase was acetonitrile-water adjusted to a pH of 3 with phosphoric acid (20:80, v/v), and a flow rate of 1 mL/min was used. The column temperature was 25 °C and the injection volume was 50 µL.
It is important to mention that the results presented in these studies represent the first report about OxyCl polymorphs stability. The degradation curves of each OxyCl polymorph and its binary systems with β-CD, NAC, and ASP in an aqueous solution, under identical experimental conditions, were compared. […] The kinetic parameters, which are important in the pharmaceutical sector, were determined using a first-order reaction model that could be expressed by the following equation:ln Ct = […] − k t(8) where Ct and C0 were the concentrations of OxyCl at different reaction times and at the initial time, respectively, k was the degradation rate constant, and t was time. As a result, the slope of the fitted lines could be used to determine k.
(§7) Furthermore, linear regression analysis was used to estimate the intrinsic rate constant of degradation of the free OxyCl polymorphs (k0), the observed rate constant of OxyCl polymorphs in the presence of ligands (kobs), the half-life (t50), and the time of 10% degradation of the drug (t90).

Data set [6] in a line: Chemical stability (degradation kinetics) in PBS by HPLC. The data set is classed as physicochemical. The conditions noted are these: 25.0 ± 0.1 °C; for k0, intrinsic rate constant of degradation of the free polymorph: PBS (pH 7.4), light protection, 30 µg/mL. As for the experimental part: as §4, §5, §6, §7
The degradation plots were linear, indicating apparent first-order kinetics. […] It was observed that OxyCl-I degraded at a faster rate than OxyCl-II and OxyCl-III, with a degradation rate of OxyCl-II < OxyCl-III < OxyCl-I.

On the set-up of data set [7]: method as in doi:10.1016/j.molliq.2017.12.006. The conditions noted are these: incorporated into β-CD cavity; hydrolytic degradation; cited from earlier work.

Molecules are shown by their SMILES. Counter-ions that a name gives are not always drawn.

With `CN(C)[C@@H]1C(O)=C(C(N)=O)C(=O)[C@@]2(O)C(O)=C3C(=O)c4c(O)cccc4[C@@](C)(O)[C@H]3[C@H](O)[C@@H]12` [OxyCl-II, Oxytetracycline hydrochloride], the “Apparent binding constants Ka, ligand β-CD” value in data set [1] is given as 15,425 M^−1. Besides, in data set [2], the “Apparent binding constants Ka, ligand ASP” value is 3063 M⁻¹. Moreover, the “Apparent binding constants Ka, ligand HIS” value in data set [3] was found to be 323 M⁻¹. For the same compound, the “Apparent binding constants Ka, ligand NAC” value in data set [4] is 4582 M⁻¹. Further, the “t50, half-life” value is listed as 57 h in data set [5] and 139 h in data set [6] (PBS). Moreover, the figures for the “t90, time of 10% degradation of the drug” value in data set [5] and in data set [6] (PBS) were 9 h and 21 h, respectively. In addition, the “k0, intrinsic rate constant of degradation of the free polymorph” value in data set [5] was determined as 0.0121 h⁻¹; in data set [6], 0.005 h⁻¹.

`NS(=O)(=O)c1cc2c(cc1Cl)NCNS2(=O)=O` [hydrochlorothiazide]: in data set [7], the “increase of half-life in aqueous solutions by β-CD” value was ~28 fold.

As to `CN(C)[C@@H]1C(O)=C(C(N)=O)C(=O)[C@@]2(O)C(O)=C3C(=O)c4c(O)cccc4[C@@](C)(O)[C@H]3[C@H](O)[C@@H]12` [OxyCl-I, Oxytetracycline hydrochloride], in data set [1], the “Apparent binding constants Ka, ligand β-CD” value is 3761 M⁻¹. For the same compound, the “Apparent binding constants Ka, ligand ASP” value in data set [2] is reported as 34,645 M^−1. In addition, the “Apparent binding constants Ka, ligand HIS” value in data set [3] worked out at 224 M⁻¹. In addition, the “Apparent binding constants Ka, ligand NAC” value in data set [4] was found to be 2042 M⁻¹. In data set [5], the “t50, half-life” value was determined as 68 h; the “t90, time of 10% degradation of the drug” value is given as 10 h; the “k0, intrinsic rate constant of degradation of the free polymorph” value came to 0.0102 h⁻¹. In addition, the “k0, intrinsic rate constant of degradation of the free polymorph” value in data set [6] turned out to be 0.009 h⁻¹. For the same compound, the “t90, time of 10% degradation of the drug” value in data set [6] (PBS) was found to be 12 h. Besides, the half-life at 30 µg/mL in data set [6] (PBS, pH 7.4, PBS, read-out: t50, half-life (converted)) is 81 h.

In the case of `CN(C)[C@@H]1C(O)=C(C(N)=O)C(=O)[C@@]2(O)C(O)=C3C(=O)c4c(O)cccc4[C@@](C)(O)[C@H]3[C@H](O)[C@@H]12` [OxyCl-III, Oxytetracycline hydrochloride], the “Apparent binding constants Ka, ligand β-CD” value in data set [1] is 3607 M⁻¹. Further, the “Apparent binding constants Ka, ligand ASP” value in data set [2] was 1771 M⁻¹. Besides, the “Apparent binding constants Ka, ligand HIS” value in data set [3] is 8247 M⁻¹. Also, the “Apparent binding constants Ka, ligand NAC” value in data set [4] came to 3897 M⁻¹. The “t90, time of 10% degradation of the drug” value in data set [5] is 9 h; in data set [6] (PBS) it was 15 h. The “k0, intrinsic rate constant of degradation of the free polymorph” value is 0.0116 h⁻¹ in data set [5] and 0.007 h⁻¹ in data set [6]. Also, the half-life at 30 µg/mL in data set [5] (pH 4, aqueous solution, read-out: t50, half-life (converted)) was 60 h. For the same compound, in data set [6] (PBS), the “t50, half-life” value amounted to 102 h.
